Earlier results in PubChem BioAssay AID1259409 (Chemical Carcinogenesis Research Information System (CCRIS), 2018).

Test system: rodent chemically induced tumor inhibition, incidence and multiplicity
Experiment: CCRIS tumor inhibitor studies
Details: Route [Inhibitor]: ORAL, Species: RAT

In the case of COc1cc(/C=C/C(=O)O[C@H]2CC[C@]34C[C@]35CC[C@]3(C)[C@@H]([C@H](C)CCC=C(C)C)CC[C@@]3(C)[C@@H]5CC[C@H]4C2(C)C)ccc1O, the “tumour outcome (control, treated, inhibition, significance)” value (Carcinogen: 3,2'-DIMETHYL-4-AMINOBIPHENYL, 13394-86-0, Dose [Inhibitor]: 0, 2% IN BASAL DIET BEGINNING POST CARCINOGEN TREATMENT AND CONTINUING FOR 40 WK (STUDY DURATION: 60 WK), Strain/Sex: F344/MALE, Target Tissue: Type of Lesion: SMALL INTESTINE: ADENOMA AND ADENOCARCINOMA, Dose [Carcinogen]: 50 MG/KG 1/2 WK FOR 20 WK TO RATS MAINTAINED ON ETHINYL ESTRADIOL CONTAINING DIET (0.75 PPM) FOR 1 WK CYCLED WITH ETHINY, Promoter: ETHINYL ESTRADIOL, 57-63-6) is given as 2/10 (20%), 3/13 (23%), -15%, not significant, the “tumour outcome (control, treated, inhibition, significance)” value (Carcinogen: 3,2'-DIMETHYL-4-AMINOBIPHENYL, 13394-86-0, Dose [Inhibitor]: 0, 2% IN BASAL DIET BEGINNING POST CARCINOGEN TREATMENT AND CONTINUING FOR 40 WK (STUDY DURATION: 60 WK), Strain/Sex: F344/MALE, Target Tissue: Type of Lesion: SUBCUTIS: TUMOR, Dose [Carcinogen]: 50 MG/KG 1/2 WK FOR 20 WK TO RATS MAINTAINED ON ETHINYL ESTRADIOL CONTAINING DIET (0.75 PPM) FOR 1 WK CYCLED WITH ETHINY, Promoter: ETHINYL ESTRADIOL, 57-63-6) is given as 1/10 (10%), 0/13 (0%), 100%, not significant and the “tumour outcome (control, treated, inhibition, significance)” value (Carcinogen: 3,2-DIMETHYL-4-AMINOBIPHENYL, 13394-86-0, Dose [Inhibitor]: 0, 2% IN BASAL DIET BEGINNING POST CARCINOGEN TREATMENT AND CONTINUING FOR 40 WK (STUDY DURATION: 60 WK), Strain/Sex: F344/MALE, Target Tissue: Type of Lesion: PREPUTIAL GLAND: ADENOMA AND CARCINOMA, Dose [Carcinogen]: 50 MG/KG 1/2 WK FOR 20 WK TO RATS MAINTAINED ON ETHINYL ESTRADIOL CONTAINING DIET (0.75 PPM) FOR 1 WK CYCLED WITH ETHINY, Promoter: ETHINYL ESTRADIOL, 57-63-6) is given as 5/10 (50%), 8/13 (62%), -24%, not significant. The “tumour outcome (control, treated, inhibition, significance)” value (Carcinogen: 3,2-DIMETHYL-4-AMINOBIPHENYL, 13394-86-0, Dose [Inhibitor]: 0, 2% IN BASAL DIET BEGINNING POST CARCINOGEN TREATMENT AND CONTINUING FOR 40 WK (STUDY DURATION: 60 WK), Strain/Sex: F344/MALE, Target Tissue: Type of Lesion: ZYMBAL GLAND: ADENOMA AND CARCINOMA, Dose [Carcinogen]: 50 MG/KG 1/2 WK FOR 20 WK TO RATS MAINTAINED ON ETHINYL ESTRADIOL CONTAINING DIET (0.75 PPM) FOR 1 WK CYCLED WITH ETHINY, Promoter: ETHINYL ESTRADIOL, 57-63-6) was 2/10 (20%), 0/13 (0%), 100%, not significant, the “tumour outcome (control, treated, inhibition, significance)” value (Carcinogen: 3,2-DIMETHYL-4-AMINOBIPHENYL, 13394-86-0, Dose [Inhibitor]: 0, 200% PPM IN BASAL DIET BEGINNING POST CARCINOGEN TREATMENT AND CONTINUING FOR 40 WK (STUDY DURATION: 60 WK), Strain/Sex: F344/MALE, Target Tissue: Type of Lesion: LARGE INTESTINE: ADENOMA AND ADENOCARCINOMA, Dose [Carcinogen]: 50 MG/KG 1/2 WK FOR 20 WK TO RATS MAINTAINED ON ETHINYL ESTRADIOL CONTAINING DIET (0.75 PPM) FOR 1 WK CYCLED WITH ETHINY, Promoter: ETHINYL ESTRADIOL, 57-63-6) was 3/10 (30%), 3/13 (23%), 23%, not significant and the “tumour outcome (control, treated, inhibition, significance)” value (Carcinogen: 7,12-DIMETHYLBENZ[A]ANTHRACENE [57-97-6], Dose [Inhibitor]: 1% IN DIET FOR 35 WK BEGINNING 1 WK POST LAST CARCINOGEN DOSE (STUDY DURATION: 36 WK), Strain/Sex: SPRAGUE-DAWLEY/FEMALE, Target Tissue: Type of Lesion: MAMMARY GLAND: CARCINOMA, Dose [Carcinogen]: 50 MG/KG BW ONCE (STUDY DURATION: 36 WK), Promoter: NONE) was 14/15 (93%), 15/16 (94%), -1%, not significant. For the same compound, the “tumour outcome (control, treated, inhibition, significance)” value (Carcinogen: 7,12-DIMETHYLBENZ[A]ANTHRACENE [57-97-6], Dose [Inhibitor]: 1% IN DIET FOR 35 WK BEGINNING 1 WK POST LAST CARCINOGEN DOSE (STUDY DURATION: 36 WK), Strain/Sex: SPRAGUE-DAWLEY/FEMALE, Target Tissue: Type of Lesion: MAMMARY GLAND: FIBROADENOMA, Dose [Carcinogen]: 50 MG/KG BW ONCE (STUDY DURATION: 36 WK), Promoter: NONE) was 3/15 (20%), 2/16 (13%), 35%, not significant, the “tumour outcome (control, treated, inhibition, significance)” value (Carcinogen: 7,12-DIMETHYLBENZ[A]ANTHRACENE, 57-97-6, Dose [Inhibitor]: 0, 1% IN DIET FOR 35 WK BEGINNING POST CARCINOGEN DOSE (STUDY DURATION: 36 WK), Strain/Sex: SPRAGUE-DAWLEY/FEMALE, Target Tissue: Type of Lesion: EAR DUCT: TUMOR, Dose [Carcinogen]: 50 MG/KG BW IN CORN OIL ONCE, Promoter: NONE USED) was 5/15 (33%), 7/16 (44%), -33%, not significant and the “tumour outcome (control, treated, inhibition, significance)” value (Carcinogen: 7,12-DIMETHYLBENZ[A]ANTHRACENE, 57-97-6, Dose [Inhibitor]: 0, 1% IN DIET FOR 35 WK BEGINNING POST CARCINOGEN DOSE (STUDY DURATION: 36 WK), Strain/Sex: SPRAGUE-DAWLEY/FEMALE, Target Tissue: Type of Lesion: MAMMARY GLAND: ADENOCARCINOMA, Dose [Carcinogen]: 50 MG/KG BW IN CORN OIL ONCE, Promoter: NONE USED) was 14/15 (93%), 15/16 (94%), -1%, not significant. The “tumour outcome (control, treated, inhibition, significance)” value (Carcinogen: 7,12-DIMETHYLBENZ[A]ANTHRACENE, 57-97-6, Dose [Inhibitor]: 0, 1% IN DIET FOR 35 WK BEGINNING POST CARCINOGEN DOSE (STUDY DURATION: 36 WK), Strain/Sex: SPRAGUE-DAWLEY/FEMALE, Target Tissue: Type of Lesion: MAMMARY GLAND: FIBROADENOMA, Dose [Carcinogen]: 50 MG/KG BW IN CORN OIL ONCE, Promoter: NONE USED) was 3/15 (20%), 2/16 (13%), 35%, not significant.
